PMC8340127 (iScience, 2021)
pKd: −log10 of the molar value. Like-named read-outs stand apart in the source and are kept apart here. Residues, ends and D or L forms follow the SMILES beside them.

What was measured:
Aβ40 [1] = target: T1, Aβ40 (Homo sapiens, UniProt P05067); format: biochemical
T1 construct: Recombinant Amyloid-β1-40 (Aβ40) wild type peptide; purchased AlexoTech AB, Umeå, Sweden AB-100-10

Aβ40 [2] = target: T1, Aβ40; format: biochemical; remark: listed apart in the source
Aβ42 [3] = target: T2, Aβ42 (Homo sapiens, UniProt P05067); format: biochemical; settings: pH 7.3
T2 construct: Recombinant Amyloid-β1-42 (Aβ42) wild type peptide; purchased rPeptide, Watkinsville, USA A-1163-2
T2 sequence (P05067 672-713): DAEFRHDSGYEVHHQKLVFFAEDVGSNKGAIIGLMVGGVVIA

Aβ42 [4] = target: T2, Aβ42; format: binding; settings: pH 8.3
Aβ42 [5] = target: T2, Aβ42; format: biochemical
[6] = format: biochemical; settings: pH 7.4
Aβ42 [7] = target: T2, Aβ42; format: biochemical; settings: pH 8
Aβ42 [8] = target: T2, Aβ42; format: biochemical; settings: pH 7.8
[9] = format: biochemical; settings: pH 7.4; remark: listed apart in the source
Aβ42 [10] = target: T2, Aβ42; format: binding
15N-Aβ40 [11] = target: T3, 15N-Aβ40 (Homo sapiens, UniProt P05067); experiment: biochemical; format: binding
T3 construct: Uniformly isotopically ^15N -labelled Amyloid-β1-40 (Aβ40); purchased AlexoTech AB, Umeå, Sweden AB-100-05
T3 sequence (P05067 672-711): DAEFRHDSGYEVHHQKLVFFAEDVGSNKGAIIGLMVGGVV

neuroblastoma cells = settings: cited from earlier work
[12] = pH 7.4
15N-Aβ40 [13] = target: T3, 15N-Aβ40; format: biochemical; settings: pH 7.35

T1 sequence (P05067 672-711): as above

Compound: Aβ40: Recombinant Amyloid-β1-40 (Aβ40) wild type peptide
- secondary structure by FTIR (Aβ40 [1]): both random coil and β-sheet conformations
- aggregation half-time τ½, Aβ40 alone + NaF (Aβ40 [2]): 2 h
- aggregation half-time τ½, Aβ40 alone (Aβ40 [2]; pH 7.3): approximately 6 h

Compound: DAEFR5HDSGY10EVHHQ15KLVFF20AEDVG25SNKGA30IIGLM35VGGVV40IA [Aβ42, Recombinant Amyloid-β1-42 (Aβ42) wild type peptide]
- time at which normalized CD signals at 198 and 220 nm meet, Aβ42 alone (Aβ42 [3]): approximately one
- β-sheet formation of Aβ42 alone (Aβ42 [3]): transitioned into a mostly β-sheet state within 4 h
- oligomeric state of Aβ42, aqueous (Aβ42 [4]): mostly monomeric peptide with a rich population of small and heterogeneous oligomers
- fibril diameter by AFM, Aβ42 alone (Aβ42 [5]): approximately 10 nm
- calcein leakage by monomeric Aβ42 [6]: around 10%
- aggregation half-time τ½, Aβ42 alone (Aβ42 [7]): about 4 h
- aggregation half-time τ½, Aβ42 alone + NaF (Aβ42 [7]): approximately 2.5 h
- effect of 10% pre-formed seeds on Aβ42 amyloid formation, no NCAM-PrP (Aβ42 [8]): the amyloid formation was enhanced
- calcein leakage by monomeric Aβ42 [9]: around 10%
- share of tetramer in the Aβ42 oligomeric population (Aβ42 [10]): about 50%

Compound: CC[C@H](C)[C@H](NC(=O)[C@H](CC(C)C)NC(=O)[C@H](CC(=O)O)NC(=O)[C@H](CCCCN)NC(=O)[C@@H](NC(=O)[C@H](CCCNC(=N)N)NC(=O)[C@H](CC(C)C)NC(=O)[C@@H](N)CCSC)[C@@H](C)O)C(=O)N[C@@H](Cc1c[nH]c2ccccc12)C(=O)N[C@H](C(=O)N[C@@H](CC(C)C)C(=O)N[C@@H](Cc1ccccc1)C(=O)N[C@@H](Cc1ccccc1)C(=O)N[C@@H](CC(C)C)C(=O)NCC(=O)N[C@H](C(=O)N[C@@H](C)C(=O)N[C@H](C(=O)N[C@@H](CO)C(=O)N[C@@H](CCCCN)C(=O)N[C@@H](CCCCN)C(=O)N[C@@H](CCCNC(=N)N)C(=O)N1CCC[C@H]1C(=O)N[C@@H](CCCCN)C(=O)N1CCC[C@H]1C(N)=O)C(C)C)[C@@H](C)O)[C@@H](C)O [NCAM-PrP] (H-MLRTKDLIWTLFFLGTAVSKKRPKP-NH2)
- pKd (15N-Aβ40 [11]): ~3.80
- effect on Aβ-induced cytotoxicity in cells (neuroblastoma cells): attenuates Aβ-induced cytotoxicity in cells
- toxicity (neuroblastoma cells): not toxic at the concentrations studied

Compound: Aβ: Amyloid-β (Aβ) peptide, 40 or 42 residues long; in b38 15N-Aβ40
- secondary structure in SDS micelles [12]: α-helical secondary structures
- aggregation of Aβ40 alone (HSQC signal intensity) (15N-Aβ40 [13]): started to aggregate during the incubation
